According to ChEMBL document CHEMBL1154921, “Phenylpropanoyl esters from Horseweed (Conyza canadensis) and their inhibitory effects on catecholamine secretion” (J Nat Prod, 2010):

Assays:
[1] = Inhibition of acetylcholine-induced catecholamine secretion in bovine chromaffin cells after 10 mins by HPLC coupled electrochemical detector; assay type: functional, cell-based; conditions: Bos taurus
[2] = Inhibition of acetylcholine-induced calcium flux in calcium 4 reagent loaded bovine chromaffin cells at 1 to 100 uM; assay type: functional; conditions: Bos taurus

- IC50 [1]: 94.7 µM
- IC50 [2]: 59.8 µM
SMILES: COC(=O)[C@]12C[C@@H](OC(=O)/C=C/c3ccc(O)c(OC)c3)[C@@H](O)[C@H](O1)[C@@H](COC(=O)/C=C/c1ccc(O)c(O)c1)O2 (relative stereo)
